Source: PubChem BioAssay (NCI)
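1) Cells in 96-well plates. 2) Compound, 48 h, 5 concentrations. 3) Linear interpolation between surrounding doses. 4) Unreached endpoint = highest concentration. GI50 marks 50% less growth. TGI: concentration producing complete growth inhibition.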

How the values were obtained:
Experiment in all cases: NCI anticancer screen, dose series, 48 h
LXFL 529 NSCLC = test system: LXFL 529 NSCLC
DLD-1 colon = test system: DLD-1 colon
RXF-631 renal = test system: RXF-631 renal
XF 498 CNS = test system: XF 498 CNS
MDA-N = test system: MDA-N
HS 578T breast = test system: HS 578T breast
DU-145 prostate = test system: DU-145 prostate

SMILES	TGI (LXFL 529 NSCLC)	TGI (DLD-1 colon)	TGI (RXF-631 renal)	TGI (XF 498 CNS)	TGI (MDA-N)	TGI (HS 578T breast)	TGI (DU-145 prostate)	GI50 (MDA-N)	GI50 (DU-145 prostate)
CC(=O)OC1C(COC(N)=O)OC(n2c(-c3ccc(C)cc3)cc(-c3ccccc3)c(C#N)c2=O)C(OC(C)=O)C1OC(C)=O (configuration not stated)	> 100 µM	> 100 µM	> 100 µM						
CN(CC(=O)O)S(=O)(=O)c1ccc(Cl)cc1	> 100 µM	> 100 µM		> 100 µM					
Cc1ccc(S(=O)OC2c3ccccc3Cc3ccccc32)cc1 (configuration not stated)	31.1 µM	58.5 µM	40.2 µM	30.3 µM					
COC(=O)C(=O)C(C(=O)C(=O)Nc1ccccc1C(N)=O)c1nc2ccc([N+](=O)[O-])cc2[nH]c1=O (configuration not stated)	> 100 µM	> 100 µM	> 100 µM	> 100 µM					
S=C1NC(c2ccccc2)=NC(Cc2ccccc2)(c2ccccc2)N1c1ccccc1 (configuration not stated)	> 100 µM	> 100 µM	> 100 µM						
COc1cc(/C=C(\C)c2ccc3c(c2)OCO3)cc(OC)c1OC	96 µM	> 100 µM	> 100 µM						
O=C(O)c1cc(C(=O)C(=O)c2cc(C(=O)O)c(O)c3ccccc23)c2ccccc2c1O					> 100 µM	> 100 µM	> 100 µM		
Cc1ccc(C)c(N2C(=O)C(=O)C(c3nc4ccccc4s3)C(=O)C2=O)c1	> 100 µM	> 100 µM							
CCOC(=O)Nc1nc(-c2ccccc2)c(C)s1					> 100 µM	> 100 µM	> 100 µM		
O=C1C2=C(c3ccccc31)C(c1ccccc1Cl)NC(=S)N2 (configuration not stated)	> 100 µM	> 100 µM		> 100 µM					
N#CCC(=O)N/N=C(/C(=O)Nc1ccccc1)C1C(=O)N(c2ccccc2)N=C1N (configuration not stated)	> 100 µM	> 100 µM	> 100 µM	> 100 µM					
Cc1cc2c(=O)cc(-c3ccc(O)cc3)oc2c(C(=O)O)c1C	> 100 µM	> 100 µM		> 100 µM					
Cc1ccccc1C(C#N)/C(=N/NC(N)=S)C(=O)Nc1c(C)cccc1C (configuration not stated)	> 100 µM	> 100 µM	> 100 µM	> 100 µM					
Cn1cnc([N+](=O)[O-])c1Sc1nccn1-c1ccccc1		> 100 µM		> 100 µM					
COC1OC(CO)C(O)C(NC(=O)N(C)N=O)C1O (configuration not stated)	> 100 µM	> 100 µM		> 100 µM					
CN1C(=O)CNS1(=O)=O	> 100 µM	> 100 µM	> 100 µM	> 100 µM					
CSc1nc(SC)c2c(C)cn(Cc3ccccc3)c2n1					> 100 µM	> 100 µM	> 100 µM		
CCOc1ccc(N=C2NC(=O)C(CC(=O)Nc3ccc(Cl)cc3Cl)S2)cc1 (configuration not stated)	> 100 µM	> 100 µM	> 100 µM	> 100 µM					
C#CCOCCCC(=O)O					> 100 µM		> 100 µM		
CC[C@H]1[C@@H](C)C=C[C@@H](C)N1S(=O)(=O)c1ccc(C)cc1	> 100 µM		30.4 µM	42.4 µM					
O=C(Cc1c(C(=O)Nc2ccccc2)sc(C(=O)Nc2ccccc2)c1CC(=O)Nc1ccccc1)Nc1ccccc1	> 100 µM	> 100 µM		> 100 µM					
CC1OC(n2ccc3ccc([N+](=O)[O-])cc32)C(O)C(O)C1O (configuration not stated)	> 100 µM	> 100 µM		> 100 µM					
CC[C@@]1(O)C(=O)OCc2c1cc1n(c2=O)Cc2cc3c(OC)cccc3nc2-1	> 23.1 µM	19.3 µM	1.45 µM	0.876 µM	> 100 µM	> 100 µM		> 100 µM	0.00266 µM
C=CCC1=C2CCCCC2CCC1=O (configuration not stated)	> 100 µM	> 100 µM	> 100 µM	> 100 µM					
OCC(O)COc1ccc(F)cc1 (configuration not stated)	> 100 µM	> 100 µM		> 100 µM					
Cc1cc2c(=O)cc(-c3ccc(Cl)cc3Cl)oc2c(C(=O)O)c1C	> 100 µM	> 100 µM		> 100 µM					
